According to ChEMBL document CHEMBL1150976, “The selectivity of protein kinase inhibitors: a further update” (Biochem J, 2007):

What was measured:
[1] = target: Calcium/calmodulin-dependent protein kinase type 1 (Homo sapiens) (UniProt Q14012); assay: Percentage CaMK1 activity remaining in the presence of 2uM inhibitor
[2] = target: Ribosomal protein S6 kinase alpha-5 (Homo sapiens) (UniProt O75582); assay: Percentage MSK1 activity remaining in the presence of 2uM inhibitor
[3] = target: Serine/threonine-protein kinase pim-2 (Homo sapiens, UniProt Q9P1W9); assay: Percentage PIM2 activity remaining in the presence of 2uM inhibitor
Chain of Serine/threonine-protein kinase pim-2 (Q9P1W9 whole entry, looked up): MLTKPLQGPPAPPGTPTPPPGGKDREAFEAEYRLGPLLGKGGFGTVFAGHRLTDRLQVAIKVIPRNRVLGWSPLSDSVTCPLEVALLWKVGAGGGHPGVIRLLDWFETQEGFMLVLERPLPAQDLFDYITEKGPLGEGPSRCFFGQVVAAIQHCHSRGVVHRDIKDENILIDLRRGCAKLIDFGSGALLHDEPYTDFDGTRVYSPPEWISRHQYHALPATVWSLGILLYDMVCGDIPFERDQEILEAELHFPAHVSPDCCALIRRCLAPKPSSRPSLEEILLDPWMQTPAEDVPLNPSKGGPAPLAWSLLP

[4] = target: Proto-oncogene tyrosine-protein kinase Src (Gallus gallus) (UniProt P00523); assay: Percentage Src activity remaining in the presence of 2uM inhibitor
[5] = target: T1, Inhibitor of nuclear factor kappa-B kinase subunit beta (Homo sapiens) (UniProt O14920); assay: Percentage IKK-beta activity remaining in the presence of 2uM inhibitor
T1 sequence (whole entry): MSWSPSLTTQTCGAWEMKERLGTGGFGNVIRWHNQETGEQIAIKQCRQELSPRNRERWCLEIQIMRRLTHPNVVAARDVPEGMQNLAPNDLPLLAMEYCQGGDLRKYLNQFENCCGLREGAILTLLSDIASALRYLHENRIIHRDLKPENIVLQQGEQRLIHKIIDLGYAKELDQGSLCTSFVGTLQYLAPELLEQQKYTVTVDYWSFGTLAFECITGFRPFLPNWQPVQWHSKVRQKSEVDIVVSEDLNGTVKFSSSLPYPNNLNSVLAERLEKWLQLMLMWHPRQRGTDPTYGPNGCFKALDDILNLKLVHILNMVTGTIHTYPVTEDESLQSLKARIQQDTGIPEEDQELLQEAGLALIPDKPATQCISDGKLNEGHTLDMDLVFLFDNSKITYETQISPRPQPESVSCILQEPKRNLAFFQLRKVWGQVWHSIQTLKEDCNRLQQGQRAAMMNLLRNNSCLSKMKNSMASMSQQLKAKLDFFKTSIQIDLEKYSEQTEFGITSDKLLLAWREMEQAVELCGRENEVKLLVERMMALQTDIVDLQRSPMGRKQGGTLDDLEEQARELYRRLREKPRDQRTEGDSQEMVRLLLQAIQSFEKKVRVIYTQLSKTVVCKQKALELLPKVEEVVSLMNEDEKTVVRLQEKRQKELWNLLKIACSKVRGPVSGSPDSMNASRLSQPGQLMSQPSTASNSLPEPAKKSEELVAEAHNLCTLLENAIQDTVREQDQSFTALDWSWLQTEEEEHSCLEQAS

[6] = target: Mitogen-activated protein kinase 9 (Homo sapiens, UniProt P45984); assay: Percentage JNK2 activity remaining in the presence of 3uM inhibitor
Chain of Mitogen-activated protein kinase 9 (P45984 whole entry, looked up): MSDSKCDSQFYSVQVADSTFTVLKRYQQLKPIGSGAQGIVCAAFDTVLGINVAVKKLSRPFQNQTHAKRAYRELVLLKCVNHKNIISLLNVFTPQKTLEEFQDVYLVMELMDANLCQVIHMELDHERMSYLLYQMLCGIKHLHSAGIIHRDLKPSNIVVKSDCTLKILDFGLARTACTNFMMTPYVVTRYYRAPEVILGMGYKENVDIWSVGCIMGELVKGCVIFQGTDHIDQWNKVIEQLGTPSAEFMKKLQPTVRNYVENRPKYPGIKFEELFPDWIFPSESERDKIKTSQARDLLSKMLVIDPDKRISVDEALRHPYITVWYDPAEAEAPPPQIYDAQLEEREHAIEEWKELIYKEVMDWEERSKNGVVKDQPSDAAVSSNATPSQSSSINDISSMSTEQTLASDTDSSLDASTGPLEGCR

[7] = target: T1, Inhibitor of nuclear factor kappa-B kinase subunit beta (Homo sapiens); assay: Percentage IKK-beta activity remaining in the presence of 3uM inhibitor
[8] = target: T2, Mitogen-activated protein kinase 13 (Homo sapiens) (UniProt O15264); assay: Percentage p38delta activity remaining in the presence of 3uM inhibitor
T2 sequence (whole entry): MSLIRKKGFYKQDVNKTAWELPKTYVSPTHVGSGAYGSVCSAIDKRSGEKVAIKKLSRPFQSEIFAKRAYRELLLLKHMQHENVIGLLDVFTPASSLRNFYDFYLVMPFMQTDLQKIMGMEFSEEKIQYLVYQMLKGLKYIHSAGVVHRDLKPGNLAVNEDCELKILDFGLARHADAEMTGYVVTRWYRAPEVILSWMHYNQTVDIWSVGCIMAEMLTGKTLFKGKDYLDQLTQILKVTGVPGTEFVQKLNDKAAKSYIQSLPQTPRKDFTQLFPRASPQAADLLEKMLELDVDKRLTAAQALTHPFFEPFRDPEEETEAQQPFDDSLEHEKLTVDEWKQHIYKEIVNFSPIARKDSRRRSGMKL

[9] = target: Serine/threonine-protein kinase PAK 5 (Homo sapiens) (UniProt Q9P286); assay: Percentage PAK5 activity remaining in the presence of 3uM inhibitor
Chain of Serine/threonine-protein kinase PAK 5 (Homo sapiens) (Q9P286 whole entry, looked up): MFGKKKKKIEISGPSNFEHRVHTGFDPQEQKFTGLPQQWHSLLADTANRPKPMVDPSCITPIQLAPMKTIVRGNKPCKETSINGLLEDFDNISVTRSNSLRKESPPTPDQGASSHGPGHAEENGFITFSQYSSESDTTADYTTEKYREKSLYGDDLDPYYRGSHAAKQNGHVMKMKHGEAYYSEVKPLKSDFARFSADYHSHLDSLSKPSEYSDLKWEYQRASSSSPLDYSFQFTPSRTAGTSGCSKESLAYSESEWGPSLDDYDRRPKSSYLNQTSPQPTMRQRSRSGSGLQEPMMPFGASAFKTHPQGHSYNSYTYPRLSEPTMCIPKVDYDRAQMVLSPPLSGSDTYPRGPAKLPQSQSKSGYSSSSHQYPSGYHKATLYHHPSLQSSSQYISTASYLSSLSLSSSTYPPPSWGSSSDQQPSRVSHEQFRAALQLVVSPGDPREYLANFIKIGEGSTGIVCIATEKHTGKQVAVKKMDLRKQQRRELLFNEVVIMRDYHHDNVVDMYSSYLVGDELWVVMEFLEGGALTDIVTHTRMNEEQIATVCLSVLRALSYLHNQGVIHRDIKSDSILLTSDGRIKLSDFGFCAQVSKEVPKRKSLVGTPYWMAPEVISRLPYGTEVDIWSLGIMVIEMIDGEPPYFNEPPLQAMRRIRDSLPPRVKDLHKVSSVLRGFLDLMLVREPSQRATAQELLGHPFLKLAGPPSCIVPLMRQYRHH

[10] = target: Cyclin-dependent kinase 2/cyclin A (Homo sapiens) (UniProt P24941+P20248+P78396); assay: Percentage CDK2-cyclinA activity remaining in the presence of 3uM inhibitor; format: protein-complex assay
[11] = target: T3, MAP kinase-activated protein kinase 5 (Homo sapiens) (UniProt Q8IW41); assay: Percentage PRAK activity remaining in the presence of 3uM inhibitor
T3 sequence (whole entry): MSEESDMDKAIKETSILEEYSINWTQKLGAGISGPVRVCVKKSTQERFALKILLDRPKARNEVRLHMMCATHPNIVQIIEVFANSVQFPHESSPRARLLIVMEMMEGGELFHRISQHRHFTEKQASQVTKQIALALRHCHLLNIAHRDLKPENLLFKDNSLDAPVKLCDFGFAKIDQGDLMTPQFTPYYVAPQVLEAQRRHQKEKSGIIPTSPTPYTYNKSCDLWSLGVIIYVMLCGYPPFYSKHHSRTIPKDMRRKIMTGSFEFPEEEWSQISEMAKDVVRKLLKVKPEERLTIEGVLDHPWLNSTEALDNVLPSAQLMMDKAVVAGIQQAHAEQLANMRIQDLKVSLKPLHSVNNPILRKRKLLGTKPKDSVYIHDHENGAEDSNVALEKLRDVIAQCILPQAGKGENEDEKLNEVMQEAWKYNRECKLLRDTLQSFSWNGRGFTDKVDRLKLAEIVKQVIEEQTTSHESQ

[12] = target: Calcium/calmodulin-dependent protein kinase kinase 2 (Homo sapiens) (UniProt Q96RR4); assay: Percentage CaMKKbeta activity remaining in the presence of 3uM inhibitor; details: filed as antagonist
Chain of Calcium/calmodulin-dependent protein kinase kinase 2 (Homo sapiens) (Q96RR4 2-588 limits assumed): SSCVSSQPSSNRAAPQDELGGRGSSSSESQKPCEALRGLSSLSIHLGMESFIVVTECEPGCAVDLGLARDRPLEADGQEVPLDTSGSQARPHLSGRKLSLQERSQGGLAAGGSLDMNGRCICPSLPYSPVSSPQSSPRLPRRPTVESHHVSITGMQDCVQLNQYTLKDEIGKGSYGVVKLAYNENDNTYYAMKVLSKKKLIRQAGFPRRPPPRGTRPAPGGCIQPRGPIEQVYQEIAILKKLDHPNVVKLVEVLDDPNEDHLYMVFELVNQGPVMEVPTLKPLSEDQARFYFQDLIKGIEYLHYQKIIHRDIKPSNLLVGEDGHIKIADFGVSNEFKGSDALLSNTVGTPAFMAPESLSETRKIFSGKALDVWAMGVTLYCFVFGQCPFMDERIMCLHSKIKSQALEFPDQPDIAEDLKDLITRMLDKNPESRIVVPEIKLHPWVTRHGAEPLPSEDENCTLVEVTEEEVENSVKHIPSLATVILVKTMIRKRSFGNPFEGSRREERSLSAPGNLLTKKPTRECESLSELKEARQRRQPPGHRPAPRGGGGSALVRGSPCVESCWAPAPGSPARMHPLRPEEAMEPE

[13] = target: Casein kinase I isoform delta (Homo sapiens, UniProt P48730); assay: Percentage CK1delta activity remaining in the presence of 3uM inhibitor
Chain of Casein kinase I isoform delta (P48730 whole entry, looked up, canonical isoform): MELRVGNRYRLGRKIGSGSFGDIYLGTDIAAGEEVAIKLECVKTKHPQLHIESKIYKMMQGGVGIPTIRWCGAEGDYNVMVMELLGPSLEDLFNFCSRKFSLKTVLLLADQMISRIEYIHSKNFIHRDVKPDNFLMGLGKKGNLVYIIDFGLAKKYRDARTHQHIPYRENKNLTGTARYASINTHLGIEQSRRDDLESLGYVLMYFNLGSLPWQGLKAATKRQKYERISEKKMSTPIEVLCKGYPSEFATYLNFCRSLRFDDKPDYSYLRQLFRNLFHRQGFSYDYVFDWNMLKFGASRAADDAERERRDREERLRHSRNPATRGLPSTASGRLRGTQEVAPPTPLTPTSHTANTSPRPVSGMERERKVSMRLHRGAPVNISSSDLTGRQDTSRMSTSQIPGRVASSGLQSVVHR

[14] = target: T4, Dual specificity tyrosine-phosphorylation-regulated kinase 2 (Homo sapiens) (UniProt Q92630); assay: Percentage DYRK2 activity remaining in the presence of 3uM inhibitor
T4 sequence (whole entry): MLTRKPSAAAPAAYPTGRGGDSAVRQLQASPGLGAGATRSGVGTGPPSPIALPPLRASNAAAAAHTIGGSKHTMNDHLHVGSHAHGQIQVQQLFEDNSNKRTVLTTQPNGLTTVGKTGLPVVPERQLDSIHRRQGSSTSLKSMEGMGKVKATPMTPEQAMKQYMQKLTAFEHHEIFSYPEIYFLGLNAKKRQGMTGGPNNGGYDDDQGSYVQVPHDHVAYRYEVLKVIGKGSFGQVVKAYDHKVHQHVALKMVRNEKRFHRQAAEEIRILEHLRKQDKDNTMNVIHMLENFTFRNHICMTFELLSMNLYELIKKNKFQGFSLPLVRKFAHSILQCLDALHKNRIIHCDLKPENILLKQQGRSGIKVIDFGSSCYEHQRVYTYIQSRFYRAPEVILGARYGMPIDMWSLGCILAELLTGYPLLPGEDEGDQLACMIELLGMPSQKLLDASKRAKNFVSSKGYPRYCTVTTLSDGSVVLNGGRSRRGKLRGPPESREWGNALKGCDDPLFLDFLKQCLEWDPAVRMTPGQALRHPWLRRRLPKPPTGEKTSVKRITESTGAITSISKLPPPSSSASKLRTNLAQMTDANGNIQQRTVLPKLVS

[15] = target: cAMP-dependent protein kinase catalytic subunit alpha (Homo sapiens, UniProt P17612); assay: Percentage PKA activity remaining in the presence of 3uM inhibitor

Chain of Calcium/calmodulin-dependent protein kinase type 1 (Homo sapiens) (Q14012 whole entry, looked up): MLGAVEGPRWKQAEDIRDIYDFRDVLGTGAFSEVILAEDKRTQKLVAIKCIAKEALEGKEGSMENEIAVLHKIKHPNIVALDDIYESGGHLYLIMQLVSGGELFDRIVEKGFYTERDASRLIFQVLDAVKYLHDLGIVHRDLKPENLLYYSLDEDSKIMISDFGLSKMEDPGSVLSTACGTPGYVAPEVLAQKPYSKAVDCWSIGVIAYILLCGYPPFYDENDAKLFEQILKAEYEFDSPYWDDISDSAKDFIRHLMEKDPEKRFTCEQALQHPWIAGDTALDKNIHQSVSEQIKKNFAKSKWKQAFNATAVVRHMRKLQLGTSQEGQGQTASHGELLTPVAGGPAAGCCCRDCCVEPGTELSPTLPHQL
Chain of Ribosomal protein S6 kinase alpha-5 (Homo sapiens) (O75582 whole entry, looked up): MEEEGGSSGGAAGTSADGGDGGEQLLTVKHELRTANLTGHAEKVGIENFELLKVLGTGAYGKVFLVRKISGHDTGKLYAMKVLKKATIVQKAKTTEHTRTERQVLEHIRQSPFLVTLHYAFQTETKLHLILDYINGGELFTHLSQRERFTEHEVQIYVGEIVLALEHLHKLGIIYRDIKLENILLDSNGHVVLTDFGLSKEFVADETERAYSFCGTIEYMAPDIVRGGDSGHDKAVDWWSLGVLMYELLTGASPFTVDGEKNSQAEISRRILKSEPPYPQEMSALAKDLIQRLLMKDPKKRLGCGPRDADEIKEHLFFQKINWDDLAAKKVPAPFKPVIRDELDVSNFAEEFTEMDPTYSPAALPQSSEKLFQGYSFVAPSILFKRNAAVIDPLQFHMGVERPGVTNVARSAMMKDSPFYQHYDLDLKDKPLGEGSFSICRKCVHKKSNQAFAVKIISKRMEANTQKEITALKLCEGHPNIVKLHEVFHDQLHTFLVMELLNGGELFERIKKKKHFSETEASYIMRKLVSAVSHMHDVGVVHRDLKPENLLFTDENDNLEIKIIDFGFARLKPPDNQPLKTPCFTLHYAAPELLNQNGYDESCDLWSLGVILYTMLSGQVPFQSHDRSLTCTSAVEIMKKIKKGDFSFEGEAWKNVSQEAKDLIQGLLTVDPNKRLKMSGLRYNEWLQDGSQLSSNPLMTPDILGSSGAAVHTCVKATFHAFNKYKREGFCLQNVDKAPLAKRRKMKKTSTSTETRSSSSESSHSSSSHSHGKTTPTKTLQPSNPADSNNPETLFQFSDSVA

Row | Activity [1] [%] | Activity [2] [%] | Activity [3] [%] | Activity [4] [%] | Activity [5] [%] | Activity [6] [%] | Activity [7] [%] | Activity [8] [%] | Activity [9] [%] | Activity [10] [%] | Activity [11] [%] | Activity [12] [%] | Activity [13] [%] | Activity [14] [%] | Activity [15] [%] | SMILES
1 | 96 | 69 | 81 | 83 | 99 |  |  |  |  |  |  |  |  |  |  | Cn1cc(C2=C(c3ccc(Cl)cc3Cl)C(=O)NC2=O)c2ccccc21
2 |  |  |  |  |  | 83 | 92 | 103 | 88 | 80 | 97 | 49 | 63 | 91 | 85 | Cc1ccc(-c2c(C(=O)CF)n(CCCO)c3ncnc(N)c23)cc1
